Source: US12257280B2, “Composition for preventing or treating muscular diseases, containing, as active ingredient, Glycyrrhiza uralensis extract or compound isolated therefrom” (NEO CREMAR CO., LTD., priority 2019, dated 2025)

Legend:
C2C12 cells [1] = assay: Differentiation of myoblasts into myotubes (Giemsa stain, fusion index); assay type: cell-based, mouse
Procedure: The medium was changed every 2 days and the cells were cultured at 37° C. The medium of the cells was removed and the cells were washed with PBS. After washing, a 1:1 volume ratio of methanol:PBS was treated and then fixed for 2 minutes. Additionally, a 2:1 volume ratio of methanol:PBS reagent was added, followed by further fixation for 2 minutes. After 2 minutes, 0.04% Giemsa reagent was added, allowed to stand for 30 minutes, washed with PBS after 30 minutes, and then the appearance of the cells was observed under a microscope, and three photos of the cells were taken (300×). In the photographs taken, the number of fused nuclei in the myotube cells was counted, the total number of nuclei was counted, and the number of fused nuclei was divided by the total number of nuclei to calculate % value.

C2C12 cells [2] = assay: Myoblast proliferation verification (MTT assay) in C2C12 cells; assay type: cell-based, mouse; details: for increased proliferation of cells compared to untreated cells: isolated final compounds, 0.5 ng/ml, 1 day, MTT (FIG. 7a)
Procedure: C2C12 cells, a mouse myoblast cell line, were cultured in Dulbecco's Modified Eagle's Medium (DMEM) containing 10% Fetal bovine serum (FBS) and 1% Penicillin/streptomycin (P/S).
To verify cell proliferation, the cell culture medium was removed and the cells was washed with DMEM, and then 500 μl of MTT reagent (0.5 mg/ml) dissolved in phosphate buffered saline (PBS) was added to each well and left for 1 hour at 37° C. The reaction solution was removed and 1000 μl of dimethyl sulfoxide (DMSO) was added to each well. Purple formazan crystals were completely dissolved in DMSO and absorbance was measured at 540 nm.

C57BL/6 mice = assay: Muscle regeneration effect in mice with or without cardiotoxin (CTX) injection into gastrocnemius muscle; assay type: in vivo, mouse
Procedure: In order to observe the muscle regeneration effect according to the treatment of hot water extract of licorice or the final substance liquiritigenin, the mice were ingested with licorice hot water extract or liquiritigenin and Cardiotoxin (CTX) was/was not injected into the muscle and then the morphology and regeneration of the muscles were observed. C57BL/6 mice were ingested with licorice hot water extract (100 mg/kg) or liquiritigenin (15 mg/kg) and […] cardiotoxin was injected into the gastrocnemius muscle. After cardiotoxin injection, licorice hot water extract or liquiritigenin was ingested every day, and muscle tissue was sampled 7 days after non-injection or injection of cardiotoxin. The diameter (μm) of the muscle secured 7 days after non-injection or injection of cardiotoxin was measured using an image J program.

[3] = isolated final compounds, 0.25 ng/ml (FIG. 7b)
[4] = purchased compounds, 0.25 ng/ml (FIG. 7c)
[5] = purchased compound, 15 mg/kg ingested daily

Compound	myotube formation and fusion index increase (C2C12 cells [1]; [3]) [%]	myotube formation and fusion index increase (C2C12 cells [1]; purchased compounds (FIG. 7d)) [%]	increased proliferation of cells compared to untreated cells (C2C12 cells [2]) [%]	proliferation of cells increased compared to non-treated cells (C2C12 cells [2]; [4]) [%]	diameter of the regenerated muscle (C57BL/6 mice; 15 mg/kg, CTX-injected, 7 days, not ingested 78±4) [μm]	muscle diameter (muscle fiber size) (C57BL/6 mice; 15 mg/kg, second pair of values, apparently non-injected muscle, not ingested 124±4) [μm]	body and gastrocnemius muscle weights vs non-treated controls (C57BL/6 mice; [5])	muscle mass reductions vs non-treated controls (C57BL/6 mice; [5])	proliferation of cells increased compared to non-treated cells (C2C12 cells [2]; purchased compound, 1 ng/ml (FIG. 7c)) [%]
COc1c(/C=C/C(=O)c2ccc(O)c(O)c2)ccc(O)c1O [tetrahydroxymethoxychalcone, Tetrahydroxy methoxychalcone]	28	23	8	5	–	–	–	–	–
O=C1C[C@@H](c2ccc(O)cc2)Oc2cc(O)ccc21 [liquiritigenin, Liquiritigenin]	13	20	10	5	91±3	139±4	similar	less	–
COc1c(/C=C/C(=O)c2ccc(O)cc2)ccc(O)c1O [licochalcone B, Licochalcone B]	19	20	11	–	–	–	–	–	11
